Several values for one entry are separate records, joined by “and”; a condition that tells them apart may be missing. Equal values may be shown once. Where a name gives a salt, the structure may show the parent alone.
Key:
[1] = subcutaneous implants, end of the third month
[2] = cited from earlier work
[3] = Release rates of active agents from Tecophilic, Tecoflex and Carbothane polyurethane implants (Example 6); type: physicochemical
[4] = cited from earlier work; remark: listed apart in the source
[5] = In vitro elution of histrelin from Tecophilic HP-60D-20 polyurethane implant (Example 1); type: physicochemical; settings: HP-60D-20 implant
Description: HP-60D-20 is extruded to tubes with thickness of 0.30 mm with inside diameter of 1.75 mm. The tubes are then cut into 25 mm in length. One side of the tube is sealed with heat using a heat sealer. The sealing time is less than one minute. Four pellets of histrelin acetate are loaded into the tube. […] Each pellet is comprised of a mixture of 98% histrelin and 2% stearic acid. The second end open of the tube is sealed with heat in the same way as for the first end. The loaded implant is then conditioned and primed. The conditioning takes place at room temperature in a 0.9% saline solution for one day. Upon completion of the conditioning, the implant undergoes priming. The priming takes place at room temperatures in a 1.8% saline solution for one day. Each implant is tested in vitro in a medium selected to mimic the pH found in the human body. The temperature of the selected medium was kept at approximately 37° C. during the testing. The release rates are shown on FIG. 4 and Table 2.

[6] = In vitro elution of naltrexone from Tecophilic HP-60D-35 polyurethane implants (Example 2); type: physicochemical; settings: HP-60D-35 implants -1, -2, -3, in vitro
Experimental: HP-60D-35 is extruded to tubes with thickness of 0.30 mm with inside diameter of 1.75 mm. The tubes are then cut into 32 mm in length. One side of the tube is sealed with heat using a heat sealer. The sealing time is less than one minute. Six pellets of naltrexone are loaded into the tubes and both open sides of the tubes are sealed with heat. Each pellet weighs approximately 15.0 mg for a total of 91 mg. The second end open of the tube is sealed with heat in the same way as for the first end. The loaded implant is then conditioned and primed. The conditioning takes place at room temperature in a 0.9% saline solution for one week. Upon completion of the conditioning, the implant undergoes priming. The priming takes place at room temperatures in a 1.8% saline solution for one week. Each implant is tested in vitro in a medium selected to mimic the pH found in the human body. The temperature of the selected medium was kept at approximately 37° C. during the testing. The release rates are shown on FIG. 5 and Table 3.

[7] = Carbothane PC-3595A, F.M.: 4,500

## Cc1nc2n(c(=O)c1CCN1CCC(c3noc4cc(F)ccc34)CC1)CCCC2 [Risperidone]
[1]
  risperidone level in the dog plasma: still present at a high level
[2]
  Log P: Log P = 3.28
[3]; Carbothane PC-3575A, F.M.: 620
  non-normalized release rate: 40 µg/day
[3]; [7]
  non-normalized release rate: 11 µg/day
[3]; Tecoflex EG 100A, F.M.: 10,000
  non-normalized release rate: 8 µg/day
[3]; Tecoflex EG-65D, F.M.: 37,000
  non-normalized release rate: 2 µg/day
[3]; Tecoflex EG-85A, F.M.: 2,300
  non-normalized release rate: 150 µg/day
[3]; Tecophilic HP-60D-20, 15% EWC
  non-normalized release rate: 150 µg/day

## C[C@@H](O)[C@@H]1NC(=O)[C@H](CCCCN)NC(=O)[C@@H](Cc2c[nH]c3ccccc23)NC(=O)[C@H](Cc2ccccc2)NC(=O)[C@@H](NC(=O)[C@H](N)Cc2ccccc2)CSSC[C@@H](C(=O)N[C@H](CO)[C@@H](C)O)NC1=O [Octreotide Acetate]
[4]
  Relative Water Solubility: Very soluble,
[3]; Tecoflex EG-85A, F.M.: 2,300
  non-normalized release rate: 30 µg/day
  release rate normalized to surface area of the implant: 16 μg/day/cm^2
[3]; Tecophilic HP-60D-05, 5.5% EWC
  non-normalized release rate: 0 µg/day
  release rate normalized to surface area of the implant: 0 μg/day/cm^2
[3]; Tecophilic HP-60D-10, 8.7% EWC
  non-normalized release rate: 25 µg/day
  release rate normalized to surface area of the implant: 11 μg/day/cm^2
[3]; Tecophilic HP-60D-20, 15% EWC
  non-normalized release rate: 1500 µg/day
  release rate normalized to surface area of the implant: 758 μg/day/cm^2
[3]; Tecophilic HP-60D-35, 24% EWC
  non-normalized release rate: 4000 µg/day
  release rate normalized to surface area of the implant: 2022 μg/day/cm^2

## Clc1cccc(Cl)c1N=C1NCCN1 [Clonidine Base]
[2]
  Log P: Log P = 2.56
[3]; Carbothane PC-3575A, F.M.: 620
  non-normalized release rate: 400 µg/day
  release rate normalized to surface area of the implant: 202 μg/day/cm^2
[3]; [7]
  non-normalized release rate: 270 µg/day
  release rate normalized to surface area of the implant: 136 μg/day/cm^2
[3]; Tecoflex EG 100A, F.M.: 10,000
  non-normalized release rate: 175 µg/day
  release rate normalized to surface area of the implant: 88 μg/day/cm^2
[3]; Tecoflex EG-65D, F.M.: 37,000
  non-normalized release rate: 50 µg/day
  release rate normalized to surface area of the implant: 25 μg/day/cm^2
[3]; Tecoflex EG-85A, F.M.: 2,300
  non-normalized release rate: 2000 µg/day
  release rate normalized to surface area of the implant: 1053 μg/day/cm^2
[3]; Tecophilic HP-60D-20, 15% EWC
  non-normalized release rate: 2000 µg/day
  release rate normalized to surface area of the implant: 1011 μg/day/cm^2

## C[C@@H]1C[C@H]2[C@@H]3CCC4=CC(=O)C=C[C@]4(C)[C@@]3(F)[C@@H](O)C[C@]2(C)[C@@]1(O)C(=O)CO [Dexamethasone]
[2]
  Log P: Log P = 1.93

## CCNC(=O)[C@@H]1CCCN1C(=O)[C@H](CCCNC(=N)N)NC(=O)[C@H](CC(C)C)NC(=O)[C@@H](Cc1cn(Cc2ccccc2)cn1)NC(=O)[C@H](Cc1ccc(O)cc1)NC(=O)[C@H](CO)NC(=O)[C@H](Cc1c[nH]c2ccccc12)NC(=O)[C@H](Cc1cnc[nH]1)NC(=O)[C@@H]1CCC(=O)N1 [Histrelin Acetate]
[3]; [7]
  non-normalized release rate: 0.4 µg/day
  release rate normalized to surface area of the implant: 0.2 μg/day/cm^2
[3]; Tecoflex EG 100A, F.M.: 10,000
  non-normalized release rate: 0.5 µg/day
  release rate normalized to surface area of the implant: 0.3 μg/day/cm^2
[3]; Tecophilic HP-60D-20, 15% EWC
  non-normalized release rate: 150 µg/day
  release rate normalized to surface area of the implant: 93 μg/day/cm^2
[3]; Tecophilic HP-60D-35, 24% EWC
  non-normalized release rate: 400 µg/day
  release rate normalized to surface area of the implant: 248 μg/day/cm^2
[3]; Tecophilic HP-60D-60, 31% EWC
  non-normalized release rate: 500 µg/day
  release rate normalized to surface area of the implant: 309 μg/day/cm^2
[5]; week 1 of elution
  Histrelin Elution Rates: 451.733 µg/day
[5]; week 2 of elution
  Histrelin Elution Rates: 582.666 µg/day
[5]; week 3 of elution
  Histrelin Elution Rates: 395.9 µg/day
[5]; week 4 of elution
  Histrelin Elution Rates: 310.29 µg/day
[5]; week 5 of elution
  Histrelin Elution Rates: 264.92 µg/day
[5]; week 6 of elution
  Histrelin Elution Rates: 247.17 µg/day
[5]; week 7 of elution
  Histrelin Elution Rates: 215.93 µg/day
[5]; week 8 of elution
  Histrelin Elution Rates: 201.78 µg/day
[5]; week 9 of elution
  Histrelin Elution Rates: 183.22 µg/day
[5]; week 10 of elution
  Histrelin Elution Rates: 174.99 µg/day
[5]; week 11 of elution
  Histrelin Elution Rates: 167.72 µg/day
[5]; week 12 of elution
  Histrelin Elution Rates: 158.37 µg/day
[5]; week 13 of elution
  Histrelin Elution Rates: 153.95 µg/day
[5]; week 14 of elution
  Histrelin Elution Rates: 146.46 µg/day
[5]; week 15 of elution
  Histrelin Elution Rates: 139.83 µg/day
[5]; week 16 of elution
  Histrelin Elution Rates: 129.6 µg/day
[5]; week 17 of elution
  Histrelin Elution Rates: 124.46 µg/day
[5]; week 18 of elution
  Histrelin Elution Rates: 118.12 µg/day
[5]; week 19 of elution
  Histrelin Elution Rates: 120.35 µg/day

## Cc1ccccc1N1C(=O)c2cc(S(N)(=O)=O)c(Cl)cc2NC1C (stereo not drawn) [Metolazone]
[2]
  Log P: Log P = 2.50
[3]; Carbothane PC-3575A, F.M.: 620
  non-normalized release rate: 20 µg/day
  release rate normalized to surface area of the implant: 8.4 μg/day/cm^2
[3]; [7]
  non-normalized release rate: 6.1 µg/day
  release rate normalized to surface area of the implant: 2.6 μg/day/cm^2
[3]; Tecoflex EG 100A, F.M.: 10,000
  non-normalized release rate: 5.5 µg/day
  release rate normalized to surface area of the implant: 2.3 μg/day/cm^2
[3]; Tecoflex EG-85A, F.M.: 2,300
  non-normalized release rate: 77 µg/day
  release rate normalized to surface area of the implant: 32 μg/day/cm^2
[3]; Tecophilic HP-60D-20, 15% EWC
  non-normalized release rate: 124 µg/day
  release rate normalized to surface area of the implant: 50 μg/day/cm^2

## C#CCN(C)[C@H](C)Cc1ccccc1 [Selegiline HCL]
[3]; Carbothane PC-3575A, F.M.: 620
  non-normalized release rate: 70 µg/day
  release rate normalized to surface area of the implant: 36 μg/day/cm^2
[3]; [7]
  non-normalized release rate: 30 µg/day
  release rate normalized to surface area of the implant: 15 μg/day/cm^2
[3]; Tecoflex EG 100A, F.M.: 10,000
  non-normalized release rate: 14 µg/day
  release rate normalized to surface area of the implant: 7.2 μg/day/cm^2
[3]; Tecoflex EG-65D, F.M.: 37,000
  non-normalized release rate: 8 µg/day
  release rate normalized to surface area of the implant: 4.1 μg/day/cm^2
[3]; Tecoflex EG-85A, F.M.: 2,300
  non-normalized release rate: 3000 µg/day
  release rate normalized to surface area of the implant: 1518 μg/day/cm^2
[3]; Tecophilic HP-60D-20, 15% EWC
  non-normalized release rate: 600 µg/day
  release rate normalized to surface area of the implant: 294 μg/day/cm^2

## O=C1CC[C@@]2(O)[C@H]3Cc4ccc(O)c5c4[C@@]2(CCN3CC2CC2)[C@H]1O5 [Naltrexone Base]
[2]
  Log P: Log P = 2.07
[3]; [7]
  non-normalized release rate: 25 µg/day
  release rate normalized to surface area of the implant: 5.5 μg/day/cm^2
[3]; Tecoflex EG 100A, F.M.: 10,000
  non-normalized release rate: 55 µg/day
  release rate normalized to surface area of the implant: 23 μg/day/cm^2
[3]; Tecophilic HP-60D-05, 5.5% EWC
  non-normalized release rate: 50 µg/day
  release rate normalized to surface area of the implant: 12.7 μg/day/cm^2
[3]; Tecophilic HP-60D-10, 8.7% EWC
  non-normalized release rate: 500 µg/day
  release rate normalized to surface area of the implant: 127 μg/day/cm^2
[3]; Tecophilic HP-60D-20, 15% EWC
  non-normalized release rate: 1000 µg/day
  release rate normalized to surface area of the implant: 263 μg/day/cm^2
[3]; Tecophilic HP-60D-35, 24% EWC
  non-normalized release rate: 1500 µg/day
  release rate normalized to surface area of the implant: 704 μg/day/cm^2
[3]; Tecophilic HP-60D-60, 31% EWC
  non-normalized release rate: 2200 µg/day
  release rate normalized to surface area of the implant: 883 μg/day/cm^2
[6]; week 1 of release
  Naltrexone Elution Rates: 1529.26 µg/day and 767.38 µg/day and 1400.95 µg/day
[6]; week 2 of release
  Naltrexone Elution Rates: 1511.77 µg/day and 1280.03 µg/day and 1498.86 µg/day
[6]; week 3 of release
  Naltrexone Elution Rates: 1456.01 µg/day and 1635.97 µg/day and 1449.49 µg/day
[6]; week 4 of release
  Naltrexone Elution Rates: 1378.27 µg/day and 1607.13 µg/day and 1500.42 µg/day
[6]; week 5 of release
  Naltrexone Elution Rates: 1393.05 µg/day and 1614.52 µg/day and 1558.37 µg/day
[6]; week 6 of release
  Naltrexone Elution Rates: 1321.71 µg/day and 1550.39 µg/day and 1436.03 µg/day
[6]; week 7 of release
  Naltrexone Elution Rates: 1273.07 µg/day and 1424.24 µg/day and 1300.73 µg/day
[6]; week 8 of release
  Naltrexone Elution Rates: 1172.82 µg/day and 1246.48 µg/day and 1221.57 µg/day

— patent publication US8460274B2, “Long term drug delivery devices with polyurethane-based polymers and their manufacture” (Endo Pharmaceuticals Solutions Inc., priority 2008, dated 2013)
